Assays:
Xanthine oxidase = molecular target: T1, Xanthine oxidase (Mus musculus, UniProt Q00519); assay: Xanthine oxidase inhibition (in vitro), mouse small intestine xanthine oxidase solution, HPLC of uric acid; format: biochemical, mouse (ICR strain mice; conditions: xanthine substrate, incubated at 37° C. for 5 minutes; HPLC UV 292 nm
T1 construct: The small intestine was homogenized in 4-fold volume of cooled phosphate buffered saline solution (PBS) and then centrifuged; from tissue; host or cells: small intestine of ICR strain mice; dialysed supernatant of a 105,000 g centrifugation
T1 sequence (Q00519 whole entry): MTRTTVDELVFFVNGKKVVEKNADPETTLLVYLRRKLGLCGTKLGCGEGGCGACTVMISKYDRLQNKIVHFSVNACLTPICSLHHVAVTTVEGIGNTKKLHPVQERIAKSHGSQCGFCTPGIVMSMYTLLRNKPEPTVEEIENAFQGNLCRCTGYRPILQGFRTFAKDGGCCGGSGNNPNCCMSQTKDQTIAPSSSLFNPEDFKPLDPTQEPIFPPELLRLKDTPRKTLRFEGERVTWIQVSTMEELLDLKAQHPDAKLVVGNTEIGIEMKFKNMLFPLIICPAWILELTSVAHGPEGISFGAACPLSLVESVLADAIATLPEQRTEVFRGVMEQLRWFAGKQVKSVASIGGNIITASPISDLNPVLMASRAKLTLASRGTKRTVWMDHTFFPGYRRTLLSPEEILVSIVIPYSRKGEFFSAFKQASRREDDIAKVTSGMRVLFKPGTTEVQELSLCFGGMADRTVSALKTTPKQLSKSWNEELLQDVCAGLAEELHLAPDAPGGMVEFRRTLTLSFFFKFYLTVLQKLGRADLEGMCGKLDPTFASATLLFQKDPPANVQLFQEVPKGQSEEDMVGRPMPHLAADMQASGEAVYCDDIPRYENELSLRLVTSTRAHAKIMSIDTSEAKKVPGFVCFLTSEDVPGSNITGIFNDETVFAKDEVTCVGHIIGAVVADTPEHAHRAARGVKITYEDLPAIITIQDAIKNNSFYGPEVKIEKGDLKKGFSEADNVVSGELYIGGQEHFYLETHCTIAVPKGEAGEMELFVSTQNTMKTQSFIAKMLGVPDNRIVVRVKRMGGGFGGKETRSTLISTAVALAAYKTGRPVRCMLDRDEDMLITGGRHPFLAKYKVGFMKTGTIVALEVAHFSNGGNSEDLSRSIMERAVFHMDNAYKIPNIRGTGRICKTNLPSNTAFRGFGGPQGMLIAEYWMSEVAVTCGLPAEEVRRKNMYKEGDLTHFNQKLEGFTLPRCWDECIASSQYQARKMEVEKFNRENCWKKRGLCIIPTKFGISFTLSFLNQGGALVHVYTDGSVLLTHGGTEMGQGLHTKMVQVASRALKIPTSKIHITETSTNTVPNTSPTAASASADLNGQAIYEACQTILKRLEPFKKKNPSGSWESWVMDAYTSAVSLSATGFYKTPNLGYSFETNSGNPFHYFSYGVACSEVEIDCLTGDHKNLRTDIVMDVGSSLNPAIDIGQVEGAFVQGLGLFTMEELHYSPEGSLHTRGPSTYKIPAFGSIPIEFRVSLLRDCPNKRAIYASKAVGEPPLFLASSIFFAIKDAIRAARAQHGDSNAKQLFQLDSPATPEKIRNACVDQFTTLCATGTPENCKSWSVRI
Method: (1) Preparation of Xanthine Oxidase Solution
ICR strain mice were decapitated and the small intestine of each mouse was rapidly perfused with cooled physiological saline solution and removed. The small intestine was homogenized in 4-fold volume of cooled phosphate buffered saline solution (PBS) and then centrifuged at 105,000 g for 60 minutes. The supernatant fluid was dialyzed overnight against PBS. The dialyzed solution thus prepared was stored at -20° C. until used.
(2) Preparation of the Solution Containing the Present Compound
The compound of this invention was dissolved in DMSO (200 μl) and 2N NaOH (100 μl), and then PBS was added to prepare a solution (25 ml) containing 10^-3 M of the compound of this invention. This solution was diluted with PBS to prepare solutions containing the compound in the concentration of 10^-4, 10^-5, 10^-6, 10^-7, 10^-8, 10^-9, 10^-10, and 10^-11 M, respectively.
(3) Method for the Measurement
The assay mixture, consisted of the composition mentioned below, was incubated at 37° C. for 5 minutes. The reaction was stopped by heating in boiling water for one minute. Twenty microliters of the supernatant was analyzed by high performance liquid chromatography (HPLC) under the conditions mentioned below.
Xanthine oxidase solution (diluted in 4-folds with PBS): 200 μl
Solution containing the present compound: 200 μl
Column: osmosil packed column (.phi. 4. mm×150 mm, 5C18×300)
(§1) Eluting solution: 10 mM phosphate buffer (pH 6.0)
(§2) Retention time: 2.4 minutes (uric acid)
(4) Percent Inhibition of the Compound Against Xanthine Oxidase
The percent inhibition was calculated by the following equation. [formula]
As to each of the solutions containing the present compound as prepared in the above (2), the percent inhibition was calculted, and IC50 values were obtained from a plot of the percent inhibition against the log of the concentration of the compound of this invention.

uric acid in serum = assay: Lowering effect of test compound on the level of uric acid in serum (in vivo, oral administration); design: species or system mouse (normal male ICR mice); conditions: Mus musculus, 4 hours after administration, male ICR mice, suspended in 0.5% CMC-Na, read-out: in vivo Lowering rate (%) of uric acid in serum (in 4 hours)
Method: Experiment 2 (In Vivo: Oral Administration)
(1) Animals, Method of Administration and Sampling of Serum
Normal male ICR mice (weighting about 30 g), were provided normal diet and tap water ad libitum. A test compound suspended in 0.5% CMC-Na was administered orally to the mice (each group: 6 mice) in a dose of 5 mg/kg.
(2) Measurement of Amount of Uric Acid in Serum
To the serum (200 μl) was added 10% perchloric acid (100 μl), and the mixture was centrifuged. To the supernatant fluid (100 μl) was added 0.2M Na2 HPO4 (200 μl), and the mixture (20 μl) was analyzed by HPLC to measure the amount of uric acid. The HPLC was carried out under the following conditions.
Column: Cosmosil packed column (.phi. 4.6 mm×150 mm, 5C18 -300)
as §1, §2
(3) Lowering Effect of Test Compound on the Level of Uric Acid in Serum
The lowering rate of uric acid in serum was calculated by the following equation. [formula]

SMILES: CCc1cccc(NS(=O)(=O)c2ccc(-c3cnn4c(O)ncnc34)cc2)c1 [Example 97, 8-[4-(3-Ethylphenylaminosulfonyl)phenyl]-4-hydroxypyrazolo[1,5-a]-1,3,5-triazine]
- IC50 (Xanthine oxidase): 0.45 nM

SMILES: Oc1ncnc2c(-c3cc(Cl)c(Cl)c(Cl)c3)cnn12 [Example 53, 4-Hydroxy-8-(3,4,5-trichlorophenyl)pyrazolo[1,5-a]-1,3,5-triazine]
- IC50 (Xanthine oxidase): 15 nM

SMILES: COc1cc(-c2cnn3c(O)ncnc23)ccc1[S+]([O-])c1ccccc1 (stereo not shown) [Example 187, 4-Hydroxy-8-(3-methoxy-4-phenylsulfinylphenyl)pyrazolo[1,5-a]-1,3,5-triazine]
- IC50 (Xanthine oxidase): 25 nM
- inhibition in vivo at 5 mg/kg (uric acid in serum): 63.9%

SMILES: Cc1ccc(NS(=O)(=O)c2ccc(-c3cnn4c(O)ncnc34)cc2)cc1 [Example 95, 4-Hydroxy-8-[4-(4-methylphenylaminosulfonyl)phenyl]pyrazolo[1,5-a]-1,3,5-triazine]
- IC50 (Xanthine oxidase): 3.6 nM

SMILES: Oc1ncnc2c(-c3ccc(Sc4ccccc4)cc3)cnn12 [Example 19, 4-Hydroxy-8-(4-phenylthiophenyl)pyrazolo[1,5-a]-1,3,5-triazine]
- IC50 (Xanthine oxidase): 160 nM

SMILES: O=C(c1ccccc1)c1ccc(-c2cnn3c(O)ncnc23)cc1 [Example 70, 8-(4-Benzoylphenyl)-4-hydroxypyrazolo[1,5-a]-1,3,5-triazine]
- IC50 (Xanthine oxidase): 5.2 nM

SMILES: CCc1cc(-c2cnn3c(O)ncnc23)ccc1SC [Example 39, 8-(3-Ethyl-4-methylthiophenyl)-4-hydroxypyrazolo[1,5-a]-1,3,5-triazine]
- IC50 (Xanthine oxidase): 45 nM

SMILES: O=S(=O)(NCc1cccs1)c1ccc(-c2cnn3c(O)ncnc23)cc1 [Example 134, 4-Hydroxy-8-[4-(2-thienylmethylaminosulfonyl)phenyl]pyrazolo[1,5-a]-1,3,5-triazine]
- IC50 (Xanthine oxidase): 76 nM

SMILES: CC(C)(C)c1ccc(NS(=O)(=O)c2ccc(-c3cnn4c(O)ncnc34)cc2)cc1 [Example 100, 8-[4-(4-t-Butylphenylaminosulfonyl)phenyl]-4hydroxypyrazolo[1,5-a]-1,3,5-triazine]
- IC50 (Xanthine oxidase): 0.75 nM

SMILES: CSc1ccc(-c2cnn3c(O)ncnc23)cc1Br [Example 146, 8-(3-Bromo-4-methylthiophenyl)-4-hydroxypyrazolo[1,5-a]-1,3,5-triazine]
- IC50 (Xanthine oxidase): 2.7 nM
- inhibition in vivo at 5 mg/kg (uric acid in serum): 47%

SMILES: Oc1ncnc2c(-c3cc(Cl)c(OCc4ccccc4)c(Cl)c3)cnn12 [Example 52, 8-(4-Benzyloxy-3,5-dichlorophenyl)-4-hydroxypyrazolo[1,5-a]-1,3,5-triazine]
- IC50 (Xanthine oxidase): 53 nM

SMILES: CC(C)c1ccc(NS(=O)(=O)c2ccc(-c3cnn4c(O)ncnc34)cc2)cc1 [Example 99, 4-Hydroxy-8-[4-(4-isopropylphenylaminosulfonyl)phenyl]pyrazolo[1,5-a]-1,3,5-triazine]
- IC50 (Xanthine oxidase): 0.14 nM

SMILES: O=S(=O)(Nc1ccc(Cl)cc1)c1ccc(-c2cnn3c(O)ncnc23)cc1 [Example 109, 8-[4-(4-Chlorophenylaminosulfonyl)phenyl]-4hydroxypyrazolo[1,5-a]-1,3,5-triazine]
- IC50 (Xanthine oxidase): 3.6 nM

SMILES: COc1cc(-c2cnn3c(O)ncnc23)ccc1[N+](=O)[O-] [Example 74, 4-Hydroxy-8-(3-methoxy-4-nitrophenyl)pyrazolo[1,5-a]-1,3,5-triazine]
- IC50 (Xanthine oxidase): 50 nM

SMILES: Oc1ncnc2c(-c3ccc(Sc4ccccc4)c(Cl)c3)cnn12 [Example 167, 8-(3-Chloro-4-phenylthiophenyl)-4-hydroxypyrazolo[1,5-a]-1,3,5-triazine]
- IC50 (Xanthine oxidase): 5 nM

SMILES: CCSc1ccc(-c2cnn3c(O)ncnc23)cc1 [Example 17, 8-(4-Ethylthiophenyl)-4-hydroxypyrazolo[1,5-a]-1,3,5-triazine]
- IC50 (Xanthine oxidase): 30 nM

SMILES: Cc1cc(-c2cnn3c(O)ncnc23)ccc1S(=O)(=O)N(C)C [Example 138, 8-(4-Dimethylaminosulfonyl-3-methylphenyl)-4hydroxypyrazolo[1,5-a]-1,3,5-triazine]
- IC50 (Xanthine oxidase): 39 nM

SMILES: CC(O)c1ccc(NS(=O)(=O)c2ccc(-c3cnn4c(O)ncnc34)cc2)cc1 (stereo not drawn) [Example 101, 4-Hydroxy-8-[4-(4-α-hydroxyethylphenylaminosulfonyl)phenyl]pyrazolo[1,5-a]-1,3,5-triazine]
- IC50 (Xanthine oxidase): 54 nM

SMILES: Cc1cc(-c2cnn3c(O)ncnc23)ccc1Sc1ccccc1 [Example 33, 4-Hydroxy-8-(3-methyl-4-phenylthiophenyl)pyrazolo[1,5-a]-1,3,5-triazine]
- IC50 (Xanthine oxidase): 18 nM
- inhibition in vivo at 5 mg/kg (uric acid in serum): 62%

SMILES: Oc1ncnc2c(-c3ccc(Br)c(Cl)c3)cnn12 [Example 143, 8-(4-Bromo-3-chlorophenyl)-4-hydroxypyrazolo[1,5-a]-1,3,5-triazine]
- IC50 (Xanthine oxidase): 36 nM

SMILES: CN(C)S(=O)(=O)c1ccc(-c2cnn3c(O)ncnc23)cc1Cl [Example 136, 8-(3-Chloro-4-dimethylaminosulfonylphenyl)-4-hydroxypyrazolo[1,5-a]-1,3,5-triazine]
- IC50 (Xanthine oxidase): 32 nM

SMILES: Cc1ccc(Sc2ccc(-c3cnn4c(O)ncnc34)cc2)cc1 [Example 21, 4-Hydroxy-8-[4-(4-methylphenylthio)phenyl]pyrazolo[1,5-a]-1,3,5-triazine]
- IC50 (Xanthine oxidase): 310 nM

SMILES: COC(=O)c1ccc(NS(=O)(=O)c2ccc(-c3cnn4c(O)ncnc34)cc2)cc1O [Example 112]
- IC50 (Xanthine oxidase): 6.5 nM

SMILES: Cc1cc(-c2cnn3c(O)ncnc23)ccc1[N+](=O)[O-] [Example 73, 4-Hydroxy-8-(3-methyl-4-nitrophenyl)pyrazolo[1,5-a]-1,3,5-triazine]
- IC50 (Xanthine oxidase): 40 nM

SMILES: COC(=O)c1ccc(NS(=O)(=O)c2ccc(-c3cnn4c(O)ncnc34)cc2)cc1OC [Example 113, 4-Hydroxy-8-[4-(3-methoxy-4-methoxycarbonylphenylaminosulfonyl)phenyl]pyrazolo[1,5-a]-1,3,5-triazine]
- IC50 (Xanthine oxidase): 34 nM

SMILES: CSc1ccc(-c2cnn3c(O)ncnc23)cc1Cl [Example 43, 8-(3-Chloro-4-methylthiophenyl)-4-hydroxypyrazolo[1,5-a]-1,3,5-triazine]
- IC50 (Xanthine oxidase): 10 nM
- inhibition in vivo at 5 mg/kg (uric acid in serum): 60.6%

SMILES: CCc1ccc(NS(=O)(=O)c2ccc(-c3cnn4c(O)ncnc34)cc2)cc1 [Example 96, 8-[4-(4-Ethylphenylaminosulfonyl)phenyl]-4-hydroxypyrazolo[1,5-a]-1,3,5-triazine]
- IC50 (Xanthine oxidase): 0.1 nM

SMILES: Oc1ncnc2[nH]ncc12 [Allopurinol, 4-hydroxypyrazolo[3,4-d]pyrimidine, reference compound]
- inhibition in vivo at 5 mg/kg (uric acid in serum): 34%

SMILES: O=S(=O)(Nc1cccc(O)c1)c1ccc(-c2cnn3c(O)ncnc23)cc1 [Example 107, 4-Hydroxy-8-[4-(3-hydroxyphenylaminosulfonyl)phenyl]pyrazolo[1,5-a]-1,3,5-triazine]
- IC50 (Xanthine oxidase): 64 nM

SMILES: CSc1ccc(-c2cnn3c(O)ncnc23)cc1SC [Example 41, 8-[(3,4-Bismethylthio)phenyl]-4-hydroxypyrazolo[1,5-a]-1,3,5-triazine]
- IC50 (Xanthine oxidase): 24 nM
- inhibition in vivo at 5 mg/kg (uric acid in serum): 60.1%

SMILES: COC(=O)c1ccc(NS(=O)(=O)c2ccc(-c3cnn4c(O)ncnc34)cc2)cc1 [Example 105, 4-Hydroxy-8-[4-(4-methoxycarbonylphenylaminosulfonyl)phenyl]pyrazolo[1,5-a]-1,3,5-triazine]
- IC50 (Xanthine oxidase): 2.2 nM

SMILES: Cc1cc(-c2cnn3c(O)ncnc23)ccc1Br [Example 142, 8-(4-Bromo-3-methylphenyl)-4-hydroxypyrazolo[1,5-a]-1,3,5-triazine]
- IC50 (Xanthine oxidase): 52 nM

Source: patent US4824834A, “Pyrazolotriazine compounds” (Otsuka Pharmaceutical Company, Limited, priority 1986, dated 1989)
